Three compounds from EP0882016B1, “ALKYLATED STYRENES AS PRODRUGS TO COX-2 INHIBITORS” (Merck Frosst Canada & Co., priority 1996, dated 1997) can be followed below.

Data set [1] is described as follows: Rat plasma levels, per os pharmacokinetics in rats. As to conditions: maximum rat plasma concentration of the active COX-2 inhibitor (corresponding carbonyl compound) after 20 mg/kg oral dose of the indicated prodrug. It is filed as in vivo, Male Sprague Dawley rats. The text has this: The animals are housed, fed and cared for according to the Guidelines of the Canadian Council on Animal Care.
Male Sprague Dawley rats (325-375 g) are fasted overnight prior to each PO blood level study.
The rats are placed in the restrainer one at a time and the box is firmly secured. The zero blood sample is obtained by nicking a small (1 mm or less) piece off the tip of the tail. The tail is then stroked with a firm but gentle motion from the top to the bottom to milk out the blood. Approximately 1 mL of blood is collected into a heparinized vacutainer tube.
Compounds are prepared as required, in a standard dosing volume of 10mL/kg, and administered orally by passing a 16 gauge, 3" gavaging needle into the stomach.
Subsequent bleeds are taken in the same manner as the zero bleed except that there is no need to nick the tail again. The tail is cleaned with a piece of gauze and milked/stroked as described above into the appropriately labelled tubes.
Immediately after sampling, blood is centrifuged, separated, put into clearly marked vials and stored in a freezer until analysed.
Typical time points for determination of rat blood levels after PO dosing are: 0, 15min, 30min, 1h, 2h, 4h, 6h
After the 4hr time point bleed, food is provided to the rats ad libitum. Water is provided at all times during the study.
The following vehicles may be used in PO rat blood level determinations:
Compounds for PO blood levels can be in suspension form. For better dissolution, the solution can be placed in a sonicator for approximately 5 minutes.
For analysis, aliquots are diluted with an equal volume of acetonitrile and centrifuged to remove protein precipitate. The supernatant is injected directly onto a C-18 HPLC column with UV detection. Quantitation is done relative to a clean blood sample spiked with a known quantity of drug. Bioavailability (F) is assessed by comparing area under the curve (AUC) i.v. versus p.o. F =(AUCpo)/(AUCiv)x(DOSEiv)/(DOSEpo)x 100% [formula] […]

Data set [2] deals with Rat Paw Edema. In words: Rat paw edema assay (carrageenan). It is filed as in vivo, Male Sprague-Dawley rats. As to conditions: dose of prodrug, po, required to reduce edema formation by 50% as compared to the vehicle control. Here is the method:
Male Sprague-Dawley rats (150-200 g) are fasted overnight and are given, po, either vehicle (1% methocel or 5% Tween 80) or a test compound. One hr later, a line is drawn using a permanent marker at the level above the ankle in one hind paw to define the area of the paw to be monitored. The paw volume (V0) is measured using a plethysmometer (Ugo-Basile, Italy) based on the principle of water displacement. The animals are then injected subplantarly with 50 µl of 1% carrageenan solution in saline (FMC Corp, Maine) into the paw using an insulin syringe with a 25-gauge needle (i.e. 500 µg carrageenan per paw). Three hr later, the paw volume (V3) is measured and the increases in paw volume (V3 - VO) are calculated. The animals are sacrificed by CO2 asphyxiation and the absence or presence of stomach lesions scored. Data is compared with the vehicle-control values and percent inhibition calculated. All treatment groups are coded to eliminate observer bias.
Compounds of the present invention are prodrugs of inhibitors of COX-2 and are thereby useful in the treatment of COX-2 mediated diseases as enumerated above. The extent of conversion of these compounds to the active COX-2 inhibitors may be seen in the representative results shown in Table III along with their antiinflammatory activity. The plasma levels indicated are the maximum rat plasma concentrations of the active COX-2 inhibitor observed when the rat was treated with a 20 mg/kg oral dose of the indicated prodrug. The ED50 values in the rat paw edema assay represent the dose of prodrug required to reduce edema formation by 50% as compared to the vehicle control.

As for `CC(C)(O)/C(=C(\CO)c1cccc(F)c1)c1ccc(S(C)(=O)=O)cc1` [Example 1, 2-(3-Fluorophenyl)-4-methyl-3-(4-(methylsulfonyl)-phenyl)-2-(Z)-penten-1,4-diol], in data set [1], the “Plasma Levels (µM)*” value came to 3.5 µM. Moreover, the “Rat Paw Edema (ED50, mg/kg)” value in data set [2] came out at 10 mg/kg.
In the case of `COC(C)(C)/C(=C(\C(=O)N(C)C)c1cccc(F)c1)c1ccc(S(C)(=O)=O)cc1` [Example 4, N,N-Dimethyl-2-(3-fluorophenyl)-4-methoxy-4-methyl-3-(4-(methylsulfonyl)phenyl)-2-(Z)-pentenamide], the “Plasma Levels (µM)*” value in data set [1] came to 10 µM. In data set [2], the “Rat Paw Edema (ED50, mg/kg)” value is 1.6 mg/kg.
Turning to `COC(=O)/C(=C(/c1ccc(S(C)(=O)=O)cc1)C(C)(C)OC)c1cccc(F)c1` [Example 6, Methyl 2-(3-fluorophenyl)-4-methoxy-4-methyl-3-(4-(methylsulfonyl)phenyl)-2-(Z)-pentenoate], in data set [1], the “Plasma Levels (µM)*” value came to 6 µM. Besides, the “Rat Paw Edema (ED50, mg/kg)” value in data set [2] came out at 2.1 mg/kg.
